According to ChEMBL document CHEMBL1123233, “Preparation and analgesic activity of (-)-11 alpha-substituted 1,2,3,4,5,6-hexahydro-6 alpha,7-(methyleneoxy)-2,6-methano-3-benzazocines” (J Med Chem, 1986):
Active and inactive are the calls of the source. The calls are words filed in the database; no cut-off is given here.

Assays:
Mus musculus [1] = assay: Compound was tested in mouse tail-flick analgesic antagonist assay vs morphine at 30 mg/kg; Inactive; assay type: functional, organism-based; design: dose 30 mg/kg
Mus musculus [2] = species on record: Mus musculus; assay: Compound was tested in phenylquinone antinociceptive assay; assay type: functional
Mus musculus [3] = species on record: Mus musculus; assay: Compound was tested in mouse tail-flick antinociceptive assay; assay type: functional
Mus musculus [4] = species on record: Mus musculus; assay: Compound was tested for its analgesic activity in mouse hotplate assay; assay type: functional
Mus musculus [5] = assay: Compound was tested in mouse tail-flick analgesic antagonist assay vs morphine at 30 mg/kg; assay type: functional
Mus musculus [6] = assay: Compound was tested for its analgesic activity in mouse hotplate assay at 50 mg/kg; Inactive; assay type: functional, organism-based; design: dose 50 mg/kg
Mus musculus [7] = assay: Compound was tested in mouse tail-flick antinociceptive assay at 30 mg/kg; Inactive; assay type: functional, organism-based; design: dose 30 mg/kg
Mus musculus [8] = species on record: Mus musculus; assay: Compound was tested in mouse tail-flick analgesic antagonist assay vs morphine; assay type: functional
Mus musculus [9] = assay: Compound was tested for its analgesic activity in mouse hotplate assay at 20 mg/kg; Inactive; assay type: functional, organism-based; design: dose 20 mg/kg
Mus musculus [10] = assay: Compound was tested in mouse tail-flick antinociceptive assay at 10 mg/kg; Inactive; assay type: functional, organism-based; design: dose 10 mg/kg
Mus musculus [11] = species on record: Mus musculus; assay: Compound was evaluated for analgesic response in the mouse vas deferens assay in the presence of naltrexone. (max response […]); assay type: functional, organism-based
Mus musculus [12] = species on record: Mus musculus; assay: The compound was evaluated for analgesic response in the mouse vas deferens assay (max response 80.6+/-4.0%); assay type: functional, organism-based
Mus musculus [13] = species on record: Mus musculus; assay: Compound was evaluated for antagonism in the mouse vas deferens assay in the presence of morphine at 10E-6 M; Inactive; assay type: functional, organism-based
Mus musculus [14] = species on record: Mus musculus; assay: Compound was tested in mouse tail-flick antinociceptive assay.; assay type: functional
Mus musculus [15] = species on record: Mus musculus; assay: Compound was tested in phenylquinone antinociceptive assay.; assay type: functional
Mus musculus [16] = species on record: Mus musculus; assay: Compound was evaluated for analgesic response in the mouse vas deferens assay in the presence of naltrexone. (max response 43.4+/-8.1%); assay type: functional, organism-based
Mus musculus [17] = species on record: Mus musculus; assay: Compound was evaluated for analgesic response in the mouse vas deferens assay (max response 77.1+/-8.0%); assay type: functional, organism-based
Mus musculus [18] = species on record: Mus musculus; assay: Compound was evaluated for analgesic response in the mouse vas deferens assay at 10E-5 M; Inactive; assay type: functional, organism-based
Mus musculus [19] = species on record: Mus musculus; assay: Compound was evaluated for antagonism in the mouse vas deferens assay at 10E-6 M; Inactive; assay type: functional, organism-based

Q: Which AD50 (Mus musculus [1]) does the source give for `CCC[C@H]1C2Cc3ccc(O)c4c3[C@]1(CCN2CCc1ccccc1)CO4` here?
A: inactive

Q: What about the ED50 (Mus musculus [2]) of the same compound?
A: 0.2 mg/kg

Q: What about the ED50 (Mus musculus [3]) of the same compound?
A: 1.4 mg/kg

Q: And the ED50 (Mus musculus [4])?
A: 1.7 mg/kg

Q: For `C=CCN1CC[C@]23c4c5ccc(O)c4O[C@H]2C(=O)CC[C@@]3(O)[C@H]1C5.Cl` [NALOXONE HYDROCHLORIDE], which AD50 (Mus musculus [5]) is on record?
A: 0.035 mg/kg

Q: How did the AD50 (Mus musculus [1]) turn out when `CCOC(=O)CC[C@H]1C2Cc3ccc(OC)c4c3[C@]1(CCN2C)CO4` was run?
A: inactive

Q: What about the ED50 (Mus musculus [6]) of the same compound?
A: inactive

Q: And the ED50 (Mus musculus [7])?
A: inactive

Q: What does the source list for `C=CCN1CC[C@]23COc4c(O)ccc(c42)CC1[C@@H]3CCC`?
A: AD50 (Mus musculus [8]): 0.4 mg/kg; ED50 (Mus musculus [9]): inactive; ED50 (Mus musculus [7]): inactive

Q: Which AD50 (Mus musculus [1]) does the source give for `CCC[C@H]1C2Cc3cccc4c3[C@]1(CCN2C)CO4` here?
A: inactive

Q: What about the ED50 (Mus musculus [2]) of the same compound?
A: 2.9 mg/kg

Q: And the ED50 (Mus musculus [3])?
A: 20.7 mg/kg

Q: What about the ED50 (Mus musculus [9]) of the same compound?
A: inactive

Q: Which results are given for `COc1ccc2c3c1OC[C@@]31CCN(C)C(C2)[C@@H]1CCCO`?
A: ED50 (Mus musculus [10]): inactive; AD50 (Mus musculus [1]): inactive; ED50 (Mus musculus [9]): inactive

Q: `CN1CC[C@]23c4c5ccc(O)c4O[C@H]2[C@@H](O)C=C[C@H]3[C@H]1C5.CN1CC[C@]23c4c5ccc(O)c4O[C@H]2[C@@H](O)C=C[C@H]3[C@H]1C5.O=S(=O)(O)O` was tested. Which ED50 (Mus musculus [4]) did it give?
A: 1.2 mg/kg

Q: `CCC[C@H]1C2Cc3ccc(OC(C)=O)c4c3[C@]1(CCN2C)CO4` was tested. Which AD50 (Mus musculus [1]) did it give?
A: inactive

Q: And the EC50 (Mus musculus [11])?
A: 422 nM

Q: And the EC50 (Mus musculus [12])?
A: 85.2 nM

Q: What about the ED50 (Mus musculus [13]) of the same compound?
A: inactive

Q: And the ED50 (Mus musculus [14])?
A: 0.7 mg/kg

Q: And the ED50 (Mus musculus [15])?
A: 0.2 mg/kg

Q: Which AD50 (Mus musculus [1]) does the source give for `COc1ccc2c3c1O[C@H]1[C@@H](O)C=C[C@H]4[C@@H](C2)N(C)CC[C@@]341.COc1ccc2c3c1O[C@H]1[C@@H](O)C=C[C@H]4[C@@H](C2)N(C)CC[C@@]341.O.O=P(O)(O)O.O=P(O)(O)O` [CODEINE PHOSPHATE] here?
A: inactive

Q: What about the ED50 (Mus musculus [4]) of the same compound?
A: 9.3 mg/kg

Q: What about the ED50 (Mus musculus [14]) of the same compound?
A: 14.5 mg/kg

Q: And the ED50 (Mus musculus [15])?
A: 1.1 mg/kg

Q: How did the EC50 (Mus musculus [16]) turn out when `CCC[C@H]1C2Cc3ccc(O)c4c3[C@]1(CCN2C)CO4` was run?
A: 3320 nM

Q: And the AD50 (Mus musculus [1])?
A: inactive

Q: And the EC50 (Mus musculus [17])?
A: 350 nM

Q: What about the ED50 (Mus musculus [2]) of the same compound?
A: 0.1 mg/kg

Q: What about the ED50 (Mus musculus [3]) of the same compound?
A: 0.4 mg/kg

Q: And the ED50 (Mus musculus [4])?
A: 1.8 mg/kg

Q: What about the ED50 (Mus musculus [13]) of the same compound?
A: inactive

Q: Which results are given for `CCC[C@H]1C2Cc3ccc(OC)c4c3[C@]1(CCN2C)CO4`?
A: EC50 (Mus musculus [18]): Not Active; AD50 (Mus musculus [1]): inactive; ED50 (Mus musculus [2]): 0.8 mg/kg; EC50 (Mus musculus [19]): Not Active; ED50 (Mus musculus [3]): 8.1 mg/kg; ED50 (Mus musculus [9]): inactive
